Measurements as given in PubChem BioAssay AID2060513 (Molecular Pharmacology Branch, DTP, NCI, 2025).

Test system: 299254-011-R-J1-PDC complex spheroids viability
Experiment: Anticancer human tumor 299254-011-R-J1-PDC patient-derived melanoma cell line growth inhibition [GQUAD]
Settings: for IC50: curve of first compound; for viability, T/C: stronger effect = lower value
Summary of the method: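 Tumor cells were grown as complex spheroids with HUVEC endothelial cells and mesenchymal stem cells as stroma. G-quadruplex stabilizers were combined with targeted agents over half-log dilutions from near the clinical Cmax, or from 10 microM.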

[1] = second compound 0.0316 µM, first compound 0.0316 µM
[2] = second compound 0.0316 µM, first compound 0.1 µM
[3] = second compound 0.0316 µM, first compound 0.316 µM
[4] = second compound 0.0316 µM, first compound 1 µM
[5] = second compound 0.0316 µM, first compound 3.16 µM
[6] = second compound 0.0316 µM, first compound 10 µM
[7] = second compound 0.1 µM, first compound 0.0316 µM
[8] = second compound 0.1 µM, first compound 0.1 µM
[9] = second compound 0.1 µM, first compound 0.316 µM
[10] = second compound 0.1 µM, first compound 1 µM
[11] = second compound 0.1 µM, first compound 3.16 µM
[12] = second compound 0.1 µM, first compound 10 µM
[13] = second compound 0.316 µM, first compound 0.0316 µM
[14] = second compound 0.316 µM, first compound 0.1 µM
[15] = second compound 0.316 µM, first compound 0.316 µM
[16] = second compound 0.316 µM, first compound 1 µM
[17] = second compound 0.316 µM, first compound 3.16 µM
[18] = second compound 0.316 µM, first compound 10 µM
[19] = second compound 1 µM, first compound 0.0316 µM
[20] = second compound 1 µM, first compound 0.1 µM
[21] = second compound 1 µM, first compound 0.316 µM
[22] = second compound 1 µM, first compound 1 µM
[23] = second compound 1 µM, first compound 3.16 µM
[24] = second compound 1 µM, first compound 10 µM
[25] = second compound 3.16 µM, first compound 0.0316 µM
[26] = second compound 3.16 µM, first compound 0.1 µM
[27] = second compound 3.16 µM, first compound 0.316 µM
[28] = second compound 3.16 µM, first compound 1 µM
[29] = second compound 3.16 µM, first compound 3.16 µM
[30] = second compound 3.16 µM, first compound 10 µM
[31] = second compound 10 µM, first compound 0.0316 µM
[32] = second compound 10 µM, first compound 0.1 µM
[33] = second compound 10 µM, first compound 0.316 µM
[34] = second compound 10 µM, first compound 1 µM
[35] = second compound 10 µM, first compound 3.16 µM
[36] = second compound 10 µM, first compound 10 µM
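Also: spheroids exposed to the agents for seven days before readout.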
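For viability, T/C in this document: percent viability relative to DMSO vehicle control wells = 100%.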

Q: With `CC1COCCN1c1cc(C2(O)CC3CCC(C2)O3)c2cnn(-c3ccn[nH]3)c2n1` (stereo unspecified) + Cc1cnc(CNC(=O)c2c(=O)c3ccc(N4CCCN(C)CC4)nc3n3c2sc2ccccc23)cn1 as the molecule, how does the IC50 (second compound 0.0316 µM) read?
A: 89.3 nM

Q: And the IC50 (second compound 0.1 µM)?
A: 104 nM

Q: What about the IC50 (second compound 0.316 µM) of the same molecule?
A: < 31.6 nM

Q: What about the IC50 (second compound 1 µM) of the same molecule?
A: < 31.6 nM

Q: What about the IC50 (second compound 3.16 µM) of the same molecule?
A: < 31.6 nM

Q: And the IC50 (second compound 10 µM)?
A: < 31.6 nM

Q: And the viability, T/C [1]?
A: 94.4%

Q: What about the viability, T/C [2] of the same molecule?
A: 41.6%

Q: What about the viability, T/C [3] of the same molecule?
A: 28.7%

Q: And the viability, T/C [4]?
A: 11.4%

Q: And the viability, T/C [5]?
A: 13%

Q: What about the viability, T/C [6] of the same molecule?
A: 3.95%

Q: And the viability, T/C [7]?
A: 58.6%

Q: And the viability, T/C [8]?
A: 51.5%

Q: What about the viability, T/C [9] of the same molecule?
A: 18.6%

Q: And the viability, T/C [10]?
A: 14.1%

Q: And the viability, T/C [11]?
A: 9.97%

Q: And the viability, T/C [12]?
A: 4.33%

Q: What about the viability, T/C [13] of the same molecule?
A: 31.4%

Q: What about the viability, T/C [14] of the same molecule?
A: 32%

Q: What about the viability, T/C [15] of the same molecule?
A: 14.3%

Q: What about the viability, T/C [16] of the same molecule?
A: 15.9%

Q: And the viability, T/C [17]?
A: 11%

Q: And the viability, T/C [18]?
A: 4.06%

Q: What about the viability, T/C [19] of the same molecule?
A: 22.3%

Q: What about the viability, T/C [20] of the same molecule?
A: 21%

Q: And the viability, T/C [21]?
A: 17.1%

Q: What about the viability, T/C [22] of the same molecule?
A: 12.8%

Q: What about the viability, T/C [23] of the same molecule?
A: 14.8%

Q: And the viability, T/C [24]?
A: 6.33%

Q: What about the viability, T/C [25] of the same molecule?
A: 18.8%

Q: What about the viability, T/C [26] of the same molecule?
A: 22.3%

Q: And the viability, T/C [27]?
A: 17.1%

Q: What about the viability, T/C [28] of the same molecule?
A: 10.6%

Q: And the viability, T/C [29]?
A: 13.1%

Q: And the viability, T/C [30]?
A: 7.02%

Q: What about the viability, T/C [31] of the same molecule?
A: 0.16%

Q: What about the viability, T/C [32] of the same molecule?
A: 0.22%

Q: What about the viability, T/C [33] of the same molecule?
A: 0.23%

Q: And the viability, T/C [34]?
A: 0.17%

Q: And the viability, T/C [35]?
A: 0.29%

Q: What about the viability, T/C [36] of the same molecule?
A: 0.23%

Q: Which results are given for `C=CCn1c(=O)c2cnc(Nc3ccc(N4CCN(C)CC4)cc3)nc2n1-c1cccc(C(C)(C)O)n1` + CN(C)c1ccc(Nc2c3ccc(NC(=O)CCN4CCCC4)cc3nc3cc(NC(=O)CCN4CCCC4)ccc23)cc1?
A: IC50 (second compound 0.0316 µM): 999 nM; IC50 (second compound 0.1 µM): 1790 nM; IC50 (second compound 0.316 µM): 1750 nM; IC50 (second compound 1 µM): 2280 nM; IC50 (second compound 3.16 µM): 1970 nM; IC50 (second compound 10 µM): 1680 nM; viability, T/C [1]: 101%; viability, T/C [2]: 106%; viability, T/C [3]: 77.8%; viability, T/C [4]: 49.7%; viability, T/C [5]: 46.8%; viability, T/C [6]: 31.5%; viability, T/C [7]: 88.2%; viability, T/C [8]: 94.7%; viability, T/C [9]: 76.6%; viability, T/C [10]: 69.6%; viability, T/C [11]: 30.8%; viability, T/C [12]: 27.3%; viability, T/C [13]: 92.7%; viability, T/C [14]: 81.2%; viability, T/C [15]: 95.9%; viability, T/C [16]: 65.9%; viability, T/C [17]: 34.9%; viability, T/C [18]: 31.5%; viability, T/C [19]: 120%; viability, T/C [20]: 99.5%; viability, T/C [21]: 91.9%; viability, T/C [22]: 71.1%; viability, T/C [23]: 37.4%; viability, T/C [24]: 29.6%; viability, T/C [25]: 92.4%; viability, T/C [26]: 94.5%; viability, T/C [27]: 119%; viability, T/C [28]: 75.2%; viability, T/C [29]: 36.2%; viability, T/C [30]: 28.9%; viability, T/C [31]: 97.5%; viability, T/C [32]: 115%; viability, T/C [33]: 92.7%; viability, T/C [34]: 67.8%; viability, T/C [35]: 27.2%; viability, T/C [36]: 28.3%

Q: Which results are given for `Nc1ccn(C2OC(CO)C(O)C2(F)F)c(=O)n1` (stereo unspecified) + Cc1[nH]c2ccc(F)cc2c1-c1nc2c3cccnc3c3ncccc3c2[nH]1?
A: IC50 (second compound 0.0316 µM): > 10000 nM; IC50 (second compound 0.1 µM): 6460 nM; IC50 (second compound 0.316 µM): > 10000 nM; IC50 (second compound 1 µM): > 10000 nM; IC50 (second compound 3.16 µM): > 10000 nM; IC50 (second compound 10 µM): > 10000 nM; viability, T/C [1]: 112%; viability, T/C [2]: 78.3%; viability, T/C [3]: 77.8%; viability, T/C [4]: 74.3%; viability, T/C [5]: 68.1%; viability, T/C [6]: 54.6%; viability, T/C [7]: 128%; viability, T/C [8]: 94.5%; viability, T/C [9]: 63.7%; viability, T/C [10]: 64.5%; viability, T/C [11]: 56.5%; viability, T/C [12]: 59.6%; viability, T/C [13]: 116%; viability, T/C [14]: 99.5%; viability, T/C [15]: 59.8%; viability, T/C [16]: 70.5%; viability, T/C [17]: 47.8%; viability, T/C [18]: 66.9%; viability, T/C [19]: 117%; viability, T/C [20]: 112%; viability, T/C [21]: 72.4%; viability, T/C [22]: 49%; viability, T/C [23]: 60.6%; viability, T/C [24]: 74%; viability, T/C [25]: 96.4%; viability, T/C [26]: 97%; viability, T/C [27]: 70.8%; viability, T/C [28]: 58.1%; viability, T/C [29]: 55.4%; viability, T/C [30]: 52.2%; viability, T/C [31]: 102%; viability, T/C [32]: 103%; viability, T/C [33]: 62.9%; viability, T/C [34]: 45.6%; viability, T/C [35]: 59%; viability, T/C [36]: 49%
